Columns and labels:
Format in all cases: cell-based
platelets = experiment: Platelet aggregation in response to collagen after treatment of platelet concentrate; settings: for Aggregation Response % Control / Agqregation Response % control: 25 μg/ml AMT; for % Untreated Control - Extent of Aggregation Response to Collagen, treated / % Untreated Control - Rate of Aggregation Response to Collagen, treated: 25 μg/ml AMT and 90 minutes of UVA in presence of flavonoid; for % Untreated Control - Extent of Aggregation Response to Collagen, treated / % Untreated Control - Rate of Aggregation Response to Collagen, treated / % Untreated Control - Extent of Aggregation Response to Collagen, untreated / % Untreated Control - Rate of Aggregation Response to Collagen, untreated: overnight storage; for % Untreated Control - Extent of Aggregation Response to Collagen, untreated / % Untreated Control - Rate of Aggregation Response to Collagen, untreated: flavonoid present, no AMT/UVA treatment
bacteriophage M13 = test system: bacteriophage M13
[1] = test system: cell-free vesicular stomatitis virus (VSV)
[2] = platelet conc., 7.5 mW/cm^2 UVA 30 min, quencher 2 mM
[3] = platelet conc., 7.5 mW/cm^2 UVA 30 min, quencher 4 mM
[4] = platelet conc., 7.5 mW/cm^2 UVA 30 min, quencher 10 mM
[5] = platelet conc., 7.5 mW/cm^2 UVA 30 min, quencher 50 mM
[6] = platelet conc., 7.5 mW/cm^2 UVA 60 min, quencher 2 mM
[7] = platelet conc., 7.5 mW/cm^2 UVA 60 min, quencher 4 mM
[8] = platelet conc., 7.5 mW/cm^2 UVA 60 min, quencher 10 mM
[9] = platelet conc., 7.5 mW/cm^2 UVA 60 min, quencher 50 mM
[10] = platelet conc., 11 mW/cm^2 UVA 30 min, quencher 2 mM
[11] = platelet conc., 11 mW/cm^2 UVA 60 min, quencher 2 mM
[12] = platelet conc., 11 mW/cm^2 UVA 90 min, quencher 2 mM

Molecule: OCC(O)CO [Glycerol, glycerol]
- Aggregation Response % Control (platelets; [2]): 90 % Control
- Aggregation Response % Control (platelets; [3]): 95 % Control
- Aggregation Response % Control (platelets; [4]): 80 % Control
- Aggregation Response % Control (platelets; [5]): 85 % Control
- Aggregation Response % Control (platelets; [6]): 50 % Control
- Aggregation Response % Control (platelets; [7]): 55 % Control
- Aggregation Response % Control (platelets; [8]): 50 % Control
- Aggregation Response % Control (platelets; [9]): 50 % Control
- Aggregation Response % Control (platelets; platelet conc., 7.5 mW/cm^2 UVA 90 min, quencher 4 mM): 35 % Control
- Virus Kill (log10) M13 (bacteriophage M13): 6.6 log10

Molecule: O=c1cc(-c2ccccc2)oc2cc(O)cc(O)c12 [chrysin]
- % Untreated Control - Extent of Aggregation Response to Collagen, treated (platelets): 90 % Untreated Control
- % Untreated Control - Rate of Aggregation Response to Collagen, treated (platelets): 85 % Untreated Control
- % Untreated Control - Extent of Aggregation Response to Collagen, untreated (platelets): 100/100 % Untreated Control
- % Untreated Control - Rate of Aggregation Response to Collagen, untreated (platelets): 100/100 % Untreated Control

Molecule: C[C@@H]1O[C@@H](O[C@H]2[C@H](Oc3cc(O)c4c(c3)O[C@H](c3ccc(O)cc3)CC4=O)O[C@H](CO)[C@@H](O)[C@@H]2O)[C@H](O)[C@H](O)[C@H]1O [naringin]
- % Untreated Control - Extent of Aggregation Response to Collagen, treated (platelets): 78 % Untreated Control
- % Untreated Control - Rate of Aggregation Response to Collagen, treated (platelets): 61 % Untreated Control
- % Untreated Control - Extent of Aggregation Response to Collagen, untreated (platelets): 90 % Untreated Control
- % Untreated Control - Rate of Aggregation Response to Collagen, untreated (platelets): 83 % Untreated Control

Molecule: CN(C)c1ccc2nc3ccc(=[N+](C)C)cc-3sc2c1 [M8, methylene blue]
- LOG10 VIRUS KILL VSV [1]: ≧5 LOG10

Molecule: OC[C@@H](O)[C@@H](O)[C@H](O)[C@H](O)CO [Mannitol, mannitol]
- Aggregation Response % Control (platelets; [2]): 95 % Control
- Aggregation Response % Control (platelets; [3]): 95 % Control
- Aggregation Response % Control (platelets; [4]): 91 % Control
- Aggregation Response % Control (platelets; [5]): 85 % Control
- Aggregation Response % Control (platelets; [6]): 60 % Control
- Aggregation Response % Control (platelets; [7]): 58 % Control
- Aggregation Response % Control (platelets; [8]): 56 % Control
- Aggregation Response % Control (platelets; [9]): 55 % Control
- Aggregation Response % Control (platelets; platelet conc., 7.5 mW/cm^2 UVA 90 min, quencher 2 mM): 32 % Control
- Aggregation Response % Control (platelets; platelet conc., 7.5 mW/cm^2 UVA 90 min, quencher 50 mM): 30 % Control
- aggregation response to collagen (platelets; platelet conc., 100 μg/ml AMT, 90 min UVA, 2 mM mannitol): no response at all
- Virus Kill (log10) M13 (bacteriophage M13): 6.6 log10

Molecule: Cc1c(C)c2c(c(C)c1OP(=O)(O)O)CC[C@@](C)(CCC[C@H](C)CCC[C@H](C)CCCC(C)C)O2 [α-tocopherol phosphate]
- Agqregation Response % control (platelets; platelet conc., 11 mW/cm^2 UVA 30 min, quencher 0.5 mM): 76 % control
- Agqregation Response % control (platelets; platelet conc., 11 mW/cm^2 UVA 30 min, quencher 1.0 mM): 75 % control
- Agqregation Response % control (platelets; [10]): 70 % control
- Agqregation Response % control (platelets; platelet conc., 11 mW/cm^2 UVA 60 min, quencher 0.5 mM): 55 % control
- Agqregation Response % control (platelets; platelet conc., 11 mW/cm^2 UVA 60 min, quencher 1.0 mM): 60 % control
- Agqregation Response % control (platelets; [11]): 50 % control
- Agqregation Response % control (platelets; platelet conc., 11 mW/cm^2 UVA 90 min, quencher 0.5 mM): 35 % control
- Agqregation Response % control (platelets; platelet conc., 11 mW/cm^2 UVA 90 min, quencher 1.0 mM): 40 % control
- Agqregation Response % control (platelets; [12]): 30 % control

Molecule: COc1ccc([C@@H]2CC(=O)c3c(O)cc(O[C@@H]4O[C@H](CO[C@@H]5O[C@@H](C)[C@H](O)[C@@H](O)[C@H]5O)[C@@H](O)[C@H](O)[C@H]4O)cc3O2)cc1O [hesperidin]
- % Untreated Control - Extent of Aggregation Response to Collagen, treated (platelets): 100 % Untreated Control
- % Untreated Control - Rate of Aggregation Response to Collagen, treated (platelets): 86 % Untreated Control
- % Untreated Control - Extent of Aggregation Response to Collagen, untreated (platelets): 98 % Untreated Control
- % Untreated Control - Rate of Aggregation Response to Collagen, untreated (platelets): 90 % Untreated Control

Molecule: N[C@@H](Cc1c[nH]c2ccccc12)C(=O)O [Tryptophan, tryptophan]
- Agqregation Response % control (platelets; [10]): 70 % control
- Agqregation Response % control (platelets; platelet conc., 11 mW/cm^2 UVA 30 min, quencher 4 mM): 60 % control
- Agqregation Response % control (platelets; platelet conc., 11 mW/cm^2 UVA 30 min, quencher 10 mM): 45 % control
- Agqregation Response % control (platelets; [11]): 50 % control
- Agqregation Response % control (platelets; platelet conc., 11 mW/cm^2 UVA 60 min, quencher 4 mM): 45 % control
- Agqregation Response % control (platelets; platelet conc., 11 mW/cm^2 UVA 60 min, quencher 10 mM): 20 % control
- Agqregation Response % control (platelets; [12]): 30 % control
- Agqregation Response % control (platelets; platelet conc., 11 mW/cm^2 UVA 90 min, quencher 4 mM): 20 % control
- Agqregation Response % control (platelets; platelet conc., 11 mW/cm^2 UVA 90 min, quencher 10 mM): 0 % control

Molecule: sodium carpryl N-acetyl tryptophan [SCNAT]
- Virus Kill (log10) M13 (bacteriophage M13): 1.6 log10
